In ChEMBL document CHEMBL4145695, “Histone Deacetylase 6-Selective Inhibitors and the Influence of Capping Groups on Hydroxamate-Zinc Denticity” (J Med Chem, 2018):

Key:
Homo sapiens = species on record: Homo sapiens; assay: Selectivity index, ratio of IC50 for inhibition of human recombinant HDAC1 to IC50 for inhibition of human recombinant HDAC6
[1] = target: T1, Protein deacetylase HDAC6 (Homo sapiens, UniProt Q9UBN7); assay: Inhibition of human recombinant HDAC6 incubated for 90 mins using fluorogenic substrate ZMAL (Z-Lys(Ac)-AMC) by fluorescence based assay
T1 sequence (Q9UBN7 whole entry): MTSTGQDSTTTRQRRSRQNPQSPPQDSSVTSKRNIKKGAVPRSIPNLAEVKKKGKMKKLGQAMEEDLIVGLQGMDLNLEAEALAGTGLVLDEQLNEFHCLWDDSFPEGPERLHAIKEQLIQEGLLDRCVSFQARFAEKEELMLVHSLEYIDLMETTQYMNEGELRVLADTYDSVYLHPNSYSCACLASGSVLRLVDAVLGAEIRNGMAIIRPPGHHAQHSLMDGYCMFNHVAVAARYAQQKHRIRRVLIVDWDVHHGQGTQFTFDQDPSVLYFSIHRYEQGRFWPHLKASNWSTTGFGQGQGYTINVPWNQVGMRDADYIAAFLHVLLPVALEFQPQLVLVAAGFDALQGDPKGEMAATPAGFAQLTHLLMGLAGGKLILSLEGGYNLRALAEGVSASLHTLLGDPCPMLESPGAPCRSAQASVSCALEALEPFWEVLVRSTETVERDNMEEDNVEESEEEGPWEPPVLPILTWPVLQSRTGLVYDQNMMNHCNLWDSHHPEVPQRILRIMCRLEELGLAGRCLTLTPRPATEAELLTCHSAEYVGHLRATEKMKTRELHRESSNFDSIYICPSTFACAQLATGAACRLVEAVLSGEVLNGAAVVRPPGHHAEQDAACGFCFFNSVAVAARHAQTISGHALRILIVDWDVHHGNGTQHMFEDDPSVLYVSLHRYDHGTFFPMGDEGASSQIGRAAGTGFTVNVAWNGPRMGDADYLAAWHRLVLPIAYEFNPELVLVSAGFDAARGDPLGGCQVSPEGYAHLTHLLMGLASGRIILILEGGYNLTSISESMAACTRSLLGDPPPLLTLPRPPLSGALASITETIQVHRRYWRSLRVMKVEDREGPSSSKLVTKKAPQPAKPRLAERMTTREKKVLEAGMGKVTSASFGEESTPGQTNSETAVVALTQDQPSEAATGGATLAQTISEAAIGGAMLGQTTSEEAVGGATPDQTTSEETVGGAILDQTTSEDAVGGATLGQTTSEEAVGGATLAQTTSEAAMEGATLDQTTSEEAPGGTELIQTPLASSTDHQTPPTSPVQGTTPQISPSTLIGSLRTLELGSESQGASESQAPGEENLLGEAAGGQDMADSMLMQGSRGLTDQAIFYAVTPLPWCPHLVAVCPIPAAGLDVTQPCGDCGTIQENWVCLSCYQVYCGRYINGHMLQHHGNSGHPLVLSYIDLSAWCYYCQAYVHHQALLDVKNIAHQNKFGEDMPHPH

Histone deacetylase 1 = Histone deacetylase 1 (Homo sapiens, UniProt Q13547); assay: Inhibition of human recombinant HDAC1 incubated for 90 mins using fluorogenic substrate ZMAL (Z-Lys(Ac)-AMC) by fluorescence based assay
Sequence of Histone deacetylase 1 (Q13547 whole entry): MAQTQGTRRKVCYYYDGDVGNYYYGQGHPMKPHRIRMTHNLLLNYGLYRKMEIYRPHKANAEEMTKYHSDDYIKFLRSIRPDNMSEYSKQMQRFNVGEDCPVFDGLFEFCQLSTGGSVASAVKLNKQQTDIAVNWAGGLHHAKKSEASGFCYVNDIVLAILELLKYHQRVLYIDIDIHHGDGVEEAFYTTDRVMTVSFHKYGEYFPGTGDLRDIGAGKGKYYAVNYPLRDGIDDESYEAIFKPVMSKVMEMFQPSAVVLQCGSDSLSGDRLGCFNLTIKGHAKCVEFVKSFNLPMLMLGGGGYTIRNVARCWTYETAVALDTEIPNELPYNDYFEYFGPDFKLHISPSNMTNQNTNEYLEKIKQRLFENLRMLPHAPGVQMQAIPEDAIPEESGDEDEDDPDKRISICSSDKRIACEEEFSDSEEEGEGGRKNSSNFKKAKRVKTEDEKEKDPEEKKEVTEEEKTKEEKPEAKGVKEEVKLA

Ratio IC50 (Homo sapiens) | IC50 [1] [nM] | IC50 (Histone deacetylase 1) [µM] | Compound
0.6 | 14 | 0.008 | CN(C)c1ccc(C(=O)N(CC(=O)NCc2ccccc2)Cc2ccc(C(=O)NO)cc2)cc1
25 | 11 | 0.27 | Cc1cc(C)cc(C(=O)N(CC(=O)NC2CCCCC2)Cc2ccc(C(=O)NO)cc2)c1
– | – | > 1000 | CN(Cc1ccc(C(=O)NO)cc1F)CC12CC3CC(CC(C3)C1)C2
